Results on 12 compounds are retold here after PMC3306445 (Journal of Medicinal Chemistry, 2012).

The term Kd denotes the free concentration of one partner at which half of the binding sites on the other are occupied at equilibrium, for simple one-to-one binding.

Assay [1] has as its target Pseudomonas aeruginosa thymidylate monophosphate kinase (TMK) (Pseudomonas aeruginosa, UniProt Q9HZN8). The experiment in a line: Thymidylate kinase kinetic assay. In kind it is biochemical. As to conditions: for fold improved potency over 19: PaTMK IC50 compared with secondary amide 19; for fold decreased inhibition compared with 17: PaTMK IC50 compared with 17; for fold improved inhibition over 1: PaTMK IC50 compared with 1.

In another assay the target is TMK. As to conditions: high binding affinity due to LID loop closure; cited from earlier work.

Sequence of Pseudomonas aeruginosa thymidylate monophosphate kinase (TMK) (Q9HZN8 whole entry): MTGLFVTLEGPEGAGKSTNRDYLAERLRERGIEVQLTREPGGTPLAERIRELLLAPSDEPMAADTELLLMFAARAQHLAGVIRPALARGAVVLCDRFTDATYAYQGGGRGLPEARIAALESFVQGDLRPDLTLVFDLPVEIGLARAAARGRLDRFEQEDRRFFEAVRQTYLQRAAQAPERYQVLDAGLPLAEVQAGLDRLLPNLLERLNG

For the compound `Cn1c(=O)[nH]c2ncc(-c3cccc(C(=O)NCC(=O)O)c3)cc21` [Compound 31, 2-(3-(1-Methyl-2-oxo-2,3-dihydro-1H-imidazo[4,5-b]pyridin-6-yl)benzamido)acetic acid], the “fold improved potency over 19” value in assay [1] is listed as “about 2.5 fold”. Turning to `CN(C)C(=O)c1cccc(-c2cnc3[nH]c(=O)n(C)c3c2)c1` [Compound 20, N,N-Dimethyl-3-(1-methyl-2-oxo-2,3-dihydro-1H-imidazo[4,5-b]pyridin-6-yl)benzamide], in assay [1], the “fold decreased inhibition compared with 17” value is given as 240 fold. Take `Cn1c(=O)[nH]c2ncc(-c3cccc(C(=O)NCCCc4ccc(C(F)(F)F)cc4)c3)cc21` [Compound 57, 3-(1-Methyl-2-oxo-2,3-dihydro-1H-imidazo[4,5-b]pyridin-6-yl)-N-(3-(4-(trifluoromethyl)phenyl)propyl)benzamide]: in assay [1], the “fold improved potency over 19” value is “ca. 18 fold”.

Take `Cl.Cn1c(=O)[nH]c2ncc(-c3cccc(CN)c3)cc21` [Compound 15, 6-(3-(Aminomethyl)phenyl)-1-methyl-1H-imidazo[4,5-b]pyridin-2(3H)-one hydrochloride]: in assay [1], the “PaTMK inhibition (in words)” value is “lack of activity”.

As for `Cn1c(=O)[nH]c2ncc(-c3cccc(C(N)=O)c3)cc21` [Compound 17, 3-(1-Methyl-2-oxo-2,3-dihydro-1H-imidazo[4,5-b]pyridin-6-yl)benzamide], in assay [1], the “fold improved inhibition over 1” value is 130 fold. For the same compound, the “fold increase of PaTMK inhibition over 26” value in assay [1] (compared with 26 (p-carboxamide)) is “ca. 1000 fold”. Consider `Cn1c(=O)[nH]c2ncc(-c3cccc(C(=O)NCCCc4ccc(F)cc4)c3)cc21` [Compound 47, N-(3-(4-Fluorophenyl)propyl)-3-(1-methyl-2-oxo-2,3-dihydro-1H-imidazo[4,5-b]pyridin-6-yl)benzamide], for which the “fold improved potency over 19” value in assay [1] is reported as “ca. 18 fold”. Consider `Cc1cn([C@H]2C[C@H](O)[C@@H](COP(=O)(O)OP(=O)(O)OP(=O)(O)OP(=O)(O)OP(=O)(O)OC[C@H]3O[C@@H](n4cnc5c(N)ncnc54)[C@H](O)[C@@H]3O)O2)c(=O)[nH]c1=O` [TP5A, P1-(5′-adenosyl)-P5-(5′-thymidyl)pentaphosphate], for which the Kd on TMK is 20 nM. With `Cn1c(=O)[nH]c2ncc(-c3cccc(C#N)c3)cc21` [Compound 14, 3-(1-Methyl-2-oxo-2,3-dihydro-1H-imidazo[4,5-b]pyridin-6-yl)benzonitrile], the “PaTMK inhibition (in words)” value in assay [1] was “inactive”. As for `Cn1c(=O)[nH]c2ncc(-c3cccc(C(=O)NCC(N)=O)c3)cc21` [Compound 30, N-(2-Amino-2-oxoethyl)-3-(1-methyl-2-oxo-2,3-dihydro-1H-imidazo[4,5-b]pyridin-6-yl)benzamide], the “fold improved potency over 19” value in assay [1] was “about 2.5 fold”. Still for that read-out and setting: to `Cn1c(=O)[nH]c2ncc(-c3cccc(C(=O)NCC(Cc4ccccc4)C(=O)O)c3)cc21` (centres unmarked) [Compound 53, 2-Benzyl-3-(3-(1-methyl-2-oxo-2,3-dihydro-1H-imidazo[4,5-b]pyridin-6-yl)benzamido)propanoic acid] belongs “ca. 18 fold”. In the case of `CNC(=O)c1cccc(-c2cnc3[nH]c(=O)n(C)c3c2)c1` [Compound 19, N-Methyl-3-(1-methyl-2-oxo-2,3-dihydro-1H-imidazo[4,5-b]pyridin-6-yl)benzamide], in assay [1], the “fold improved inhibition over 1” value was 30 fold and the “fold decreased inhibition compared with 17” value is listed as 5 fold. Turning to `Cn1c(=O)[nH]c2ncc(-c3cccc(C(=O)NCCCc4c[nH]c5ccccc45)c3)cc21` [Compound 48, N-(3-(1H-Indol-3-yl)propyl)-3-(1-methyl-2-oxo-2,3-dihydro-1H-imidazo[4,5-b]pyridin-6-yl)benzamide], the “fold improved potency over 19” value in assay [1] is recorded as “ca. 18 fold”.
